Reference: the supplement of paper PMC4862054
Values joined by “and” are separate entries in the source; they are usually repeats but may differ in a detail not shown here. Equal entries are not always repeated.

What was measured:
Details in all cases: incubation time: 72 h
BT-549 = experiment: normalised response (% of control), CellTiter-Glo; higher = more viable cells (100 = DMSO, 0 = benzethonium chloride kill control)
How it was run: (§1)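 A 20 µl suspension of breast cancer cells was seeded into each well of 384-well plates containing compound at 5 concentrations in 10-fold steps over a compound-specific 10,000-fold range. After 72 h incubation, CellTox Green fluorescence (485/520 nm) was read first, and CellTiter-Glo luminescence was read after 10 min at room temperature. Each plate was normalised against 0.1 % DMSO (100) and a positive kill control (0), and each value is the normalised signal at one concentration.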

MDA-MB-436 = experiment: as above
How it was run: as §1

MDA-MB-468 [1] = experiment: as above
How it was run: as §1

HCC1143 [2] = experiment: as above
How it was run: as §1

HCC1599 [3] = experiment: as above
How it was run: as §1

CAL-120 [4] = experiment: as above
How it was run: as §1

CAL-51 [5] = experiment: as above
How it was run: as §1

MDA-MB-453 [6] = experiment: as above
How it was run: as §1

MDA-MB-231 [7] = experiment: as above
How it was run: as §1

SK-BR-3 [8] = experiment: as above
How it was run: as §1

BT-474 = experiment: as above
How it was run: as §1

DU-4475 [9] = experiment: as above
How it was run: as §1

CAL-148 [10] = experiment: as above
How it was run: as §1

MFM-223 [11] = experiment: as above
How it was run: as §1

HDQ-P1 [12] = experiment: as above
How it was run: as §1

Hs578T [13] = experiment: as above
How it was run: as §1

CAL-85-1 [14] = experiment: as above
How it was run: as §1

HCC1937 [15] = experiment: as above
How it was run: as §1

MCF-10A = experiment: as above
How it was run: as §1

MDA-MB-468 [16] = experiment: normalised viability (% of control), CellTiter-Blue; higher = more viable cells (100 = DMSO, 0 = benzethonium chloride kill control)
Procedure: (§2)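 DSRT, CellTiter-Blue viability, 72 h incubation. Signal is normalised to DMSO and benzethonium chloride controls. Value is the normalised response at dose 1.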

HCC1143 [17] = experiment: as above
Procedure: as §2

HCC1599 [18] = experiment: as above
Procedure: as §2

CAL-120 [19] = experiment: as above
Procedure: as §2

CAL-51 [20] = experiment: as above
Procedure: as §2

MDA-MB-453 [21] = experiment: as above
Procedure: as §2

MDA-MB-231 [22] = experiment: as above
Procedure: as §2

SK-BR-3 [23] = experiment: as above
Procedure: as §2

DU-4475 [24] = experiment: as above
Procedure: as §2

CAL-148 [25] = experiment: as above
Procedure: as §2

MFM-223 [26] = experiment: as above
Procedure: as §2

HDQ-P1 [27] = experiment: as above
Procedure: as §2

Hs578T [28] = experiment: as above
Procedure: as §2

CAL-85-1 [29] = experiment: as above
Procedure: as §2

HCC1937 [30] = experiment: as above
Procedure: as §2

CCCCCOC(=O)Nc1nc(=O)n([C@@H]2O[C@H](C)[C@@H](O)[C@H]2O)cc1F [Capecitabine] (1 nM)
normalised response (BT-549): 107%
normalised response (MDA-MB-436): 88.7%
normalised response (MDA-MB-468 [1]): 103%
normalised response (HCC1143 [2]): 96.8%
normalised response (HCC1599 [3]): 95.5%
normalised response (CAL-120 [4]): 94.6%
normalised response (CAL-51 [5]): 67.8%
normalised response (MDA-MB-453 [6]): 113%
normalised response (MDA-MB-231 [7]): 102%
normalised response (SK-BR-3 [8]): 110%
normalised response (BT-474): 95.2%
normalised response (DU-4475 [9]): 99.7%
normalised response (CAL-148 [10]): 106%
normalised response (MFM-223 [11]): 98.2%
normalised response (HDQ-P1 [12]): 102%
normalised response (Hs578T [13]): 102%
normalised response (CAL-85-1 [14]): 96.8%
normalised response (HCC1937 [15]): 98.2%
normalised response (MCF-10A): 94.5%
normalised viability (MDA-MB-468 [16]): 106% and 115%
normalised viability (HCC1143 [17]): 93.5% and 107%
normalised viability (HCC1599 [18]): 88.8% and 111%
normalised viability (CAL-120 [19]): 85.3% and 96.5%
normalised viability (CAL-51 [20]): 106% and 99.2%
normalised viability (MDA-MB-453 [21]): 102% and 97.9%
normalised viability (MDA-MB-231 [22]): 94.7% and 83.7%
normalised viability (SK-BR-3 [23]): 117% and 92.1%
normalised viability (DU-4475 [24]): 108% and 102%
normalised viability (CAL-148 [25]): 106% and 102%
normalised viability (MFM-223 [26]): 88.8% and 95.7%
normalised viability (HDQ-P1 [27]): 85.1% and 91.7%
normalised viability (Hs578T [28]): 105% and 96.7%
normalised viability (CAL-85-1 [29]): 86.7% and 109%
normalised viability (HCC1937 [30]): 84.3% and 85%
